Measurements taken from patent US12636284B2, “Compositions for use in the prevention and/or treatment of intellectual disability and neurodegenerative diseases in a subject with down syndrome” (UNIVERSITA' DEGLI STUDI DI ROMA “LA SAPIENZA”, priority 2021, dated 2026).

Assays:
Type in all cases: in vivo, mouse
DYRK1A protein = test: Western blot of DYRK1A protein levels in hippocampus; conditions: hippocampus of Ts2Cje mice, 21 days intranasal treatment
Method: Finally, animals were sacrificed using cervical dislocation. […] For Western blots, 20 μg of proteins from the hippocampus of mice belonging to the four experimental groups were separated by 4-15% SDS-PAGE CriterionTM […] (Bio-rad, Hercules, CAUSE). […] Therefore, the gel, once the image has been acquired, represents the total of the loaded proteins (Total Load), which will then be used to normalize the specific proteins to be examined. After electrophoresis and gel imaging, proteins are transferred via the semi-dry TransBlot Turbo apparatus (Bio-Rad Laboratories) onto nitrocellulose membranes (Bio-Rad, Hercules, CA, USA). Nitrocellulose membranes are blocked with 3% bovine serum albumin (BSA) in a solution of Tween 20-TBS and incubated overnight at 4° C. using specific primary antibodies: p([…])-GSK3B (1:1000, Santa Cruz, #sc-135653), p(S9)-GSK3β (1:1000, Cell Signaling, #5558S), GSK3β (1:1000 Abcam, #93926) and DYRK1A (1:1000, Cell Signaling, #8765S), MAPK44/42 (1:1000, Cell Signaling, #9102), p[…])-MAPK44/42 (1 1000, Cell Signaling, #9101), Akt (1:2000, Bio-Rad, # vma00253K), p(S473) Akt (1:1000, Cell Signaling, #4060S). After three washes with a T-TBS buffer solution, membranes were incubated for 1 hour at room temperature with the secondary antibodies. […] Finally, the results obtained were analyzed using the ImageLab program (Bio-rad, Hercules, CA, USA).

[1] = tested on: oxidative stress levels (3-NT, 4-HNE); test: Slot blot of oxidative stress markers 3-NT and 4-HNE in hippocampus
Method: The samples (250 μl per well) were loaded into the wells of the slot-blot apparatus and transferred to a nitrocellulose membrane. The membrane was blocked for 2 h with a 3% solution of bovine serum albumin in T-TBS, and incubated with a primary anti-HNE polyclonal antibody (1:3000; HNE, NOVUS, #NB100-63093) or anti-3-NT (1:1000; Sigma Aldrich, #SAB52000009), for 2 hours at room temperature. The membrane was washed with T-TBS and incubated with alkaline phosphatase conjugated anti-rabbit or anti-mouse secondary antibody (1:5000, Sigma Aldrich) for 1 hour at room temperature. […] Finally, the results obtained were analyzed using the ImageLab program (Bio-rad, Hercules, CA, USA).

β-amyloid peptide 1-42 = test: ELISA Aβ 1-42 in hippocampus
Method: The 3x-Tg mouse, an animal model commonly used for the study of Alzheimer's disease (n=2/group), was used as a positive control for the production of β-amyloid 1-42. Briefly, ˜10 mg of hippocampus was homogenized in DEA buffer (10 μL/mg tissue; 0.2% diethanolamine and 50 mM NaCl) to which the protease inhibitor cocktail (1:100; Millipore) was added. The sample was centrifuged at 15,000 rpm for 1 hour 30 min at 4° C., the supernatant was stored for measuring ß-amyloid 1-42 following the instructions given by the kit manufacturer. The calculations for the quantization of β-amyloid were carried out using GraphPad Prism 8.0 software (GraphPad, La Jolla, CA, USA).

N[C@@H](CC(=O)N1CCn2c(nnc2C(F)(F)F)C1)Cc1cc(F)c(F)cc1F [sitagliptin, (R)-4-oxo-4-[3-(trifluoromethyl)-5,6-dihydro[1,2,4]triazole[4,3-a]pyrazin-7(8H)-yl]-1-(2,4,5-trifluorophenyl)butan-2-amine]
expression levels of the DYRK1A protein (DYRK1A protein): significant reduction
oxidative stress levels (3-NT, 4-HNE) [1]: reduction
Ab (beta-amyloid 1-42) levels (β-amyloid peptide 1-42): reduction
